{"source": "patent US8338624B2", "about": "“Isoflavone derivatives and uses thereof” (Yeda Research and Development Co., Ltd., priority 2007, dated 2012)", "key": {"[1]": {"test_system": "A2780 ovarian cancer cells", "assay": "DNA synthesis by [3H]-thymidine incorporation, A2780 cells", "assay_type": "cell-based, human", "conditions": "compound at 3 μM", "experimental": "(§1) Cells were cultured in MEM supplemented with 10% FCS and antibiotics. Cells were grown to subconfluence and then treated with various hormones or agents as described by Somjen et al. (Somjen et al., 1998). The cells were characterized in terms of expression of mRNAs for estrogen […] by real time PCR, and the results are summarized in Table 1. N87, 320DM and H295R cells expressed mRNAs for both ERs. The ratio of ERα to ERβ was 1:8.5, 1:30 and 1:1.8 in N87, 320DM and H295R cells, respectively. Ovarian A2780 and prostate C4-24 cells expressed mainly mRNA for ERβ, and the ratio of ERβ to ERα was 300:1 and 70:1, respectively. MLS ovarian cells expressed mRNA only for ERβ. The ratio of ERα to ERβ in T47D cells has been reported to be 9:1.\n(§2) [^3H]-Thymidine incorporation into DNA was used for the assessment of the various effects (proliferative or inhibitory) of various isoflavones, isoflavone derivatives and known cytotoxic drugs in the above-mentioned cells. Cells were grown until subconfluence using conditions described in Somjen et al. (Somjen et al., 1998) and then treated with various agents for 24 or 48 h as indicated. At the end of incubation, [^3H]-thymidine was added for two hours. Cells were then treated with 10% ice-cold trichloroacetic (TCA) for 5 min and washed twice with 5% TCA and then with cold ethanol. The cellular layer was dissolved in 0.3 ml of 0.3 M NaOH, aliquots were taken for counting radioactivity, and [^3H]-thymidine incorporation into DNA was calculated."}, "[2]": {"test_system": "OVCAR-4 ovarian cancer cell line", "assay": "NCI In Vitro Cell Line Screening, OVCAR-4", "assay_type": "cell-based", "conditions": "Homo sapiens, read-out: log10 GI50 (converted)", "experimental": "(§3) An in vitro cell line screen for the t-boc derivative of daidzein (compound 9) was performed at the NCI/NIH US utilizing the In Vitro Cell Line Screening Project (IVCLSP) (National Cancer Institute, Developmental Therapeutics Program, Information Technology Branch, Rockville, Md., USA).\n(§4) The operation of this screen utilized 60 different human tumor cell lines, representing leukemia, melanoma and cancers of the lung, colon, brain, ovary, breast, prostate, and kidney. […] Using these algorithms, it is possible to assign a putative mechanism of action to a test compound, or to determine that the response pattern is unique and not similar to that of any of the standard prototype compounds included in the NCI database.\n(§5) To facilitate analysis of the data, three endpoints were calculated for each cell line: The GI50 value, which is the negative log10 of the concentration required to inhibit the growth of that cell line by 50% (relative to untreated cells); TGI, the negative log10 of minimum concentration that causes total growth inhibition; and LC50, which reflects the negative log10 concentration needed to kill 50% of the cells. A Mean Graph was used as a way of easily visualizing the results from all 60 cell lines at once. To generate this graph, the mean of GI50 values across all 60 cell lines was calculated. […]"}, "[3]": {"test_system": "H295R adrenocarcinoma cells", "assay": "DNA synthesis by [3H]-thymidine incorporation, H295R cells", "assay_type": "cell-based, human", "experimental": "as §1, §2"}, "MLS ovarian cancer cells": {"test_system": "MLS ovarian cancer cells", "assay": "DNA synthesis by [3H]-thymidine incorporation, MLS cells", "assay_type": "cell-based, human", "experimental": "as §1, §2"}, "[4]": {"test_system": "Human umbilical vascular smooth muscle cells (VSMC)", "assay": "DNA synthesis by [3H]-thymidine incorporation, normal VSMC", "assay_type": "cell-based", "conditions": "compound at 3 μM", "experimental": "Human umbilical vascular smooth muscle cells (VSMC) sensitive to estrogen, were grown in culture as described above, and used only at passages 1-3, when expression of smooth muscle actin was clearly demonstrable (Somjen et al. 2000). The ratio of the expression of mRNA for ERα to ERβ was 2.7:1.\nas §2"}, "MLS ovarian xenografts": {"test_system": "MLS ovarian xenografts", "assay": "MLS ovarian xenografts in nude mice", "assay_type": "in vivo", "conditions": "9 iv 400 μg/mouse every other day", "text": "Female CD1 nude mice (8-week old, ˜30 g) were housed and handled with free access to food and water in the animal facility according to the guidelines (1996) of the Institutional Animal Care and Use Committee of the Weizmann Institute of Science, Rehovot, Israel.\nThirty female nude mice (8 weeks old) were inoculated sub-cutaneously (sc) with MLS ovarian carcinoma cells (1.5×10^6/mouse). Ten days later, when the tumors were palpable, the mice were randomly divided into 3 groups (8-10 mice/group). The mice in each group were iv injected every other day either with a vehicle (Neowater, a solubilization enhancer, 0.1 ml), daunomycin dissolved in Neowater (200 μg/mouse in 0.1 ml vehicle, total dose during treatment 1 mg/mouse), or compound 9 dissolved in Neowater (400 μg/mouse in 0.1 ml vehicle, total dose during treatment 2 mg/mouse). During treatment, body weight was recorded to monitor toxicity of the treatment, and the tumors were measured with an external caliper. Tumor volume was calculated using the formula length×width×height×π/6. Statistical significance was assessed using student's t test, and differences were considered significant at p<0.05."}, "[5]": {"test_system": "MDA-MB-435 breast cancer cell line", "assay": "NCI In Vitro Cell Line Screening, MDA-MB-435", "assay_type": "cell-based", "conditions": "Homo sapiens, read-out: log10 GI50 (converted)", "experimental": "as §3, §4, §5"}, "[6]": {"test_system": "T-47D breast cancer cell line", "assay": "NCI In Vitro Cell Line Screening, T-47D", "assay_type": "cell-based", "conditions": "Homo sapiens, T47D, read-out: log10 GI50 (converted)", "experimental": "as §3, §4, §5"}}}
{"smiles": "CC(C)(C)OC(=O)NCCCCCCNC(=O)COc1ccc2c(=O)c(-c3ccc(O)cc3)coc2c1", "note": "[Compound 9]", "values": [{"measurement": "DNA synthesis, ratio experimental/control (E/C)", "setting": "[1]", "value": "0.1 ± 0.15"}, {"measurement": "GI50", "setting": "[2]", "value": 407, "unit": "nM"}, {"measurement": "inhibition at 3 µM", "setting": "[3]; Homo sapiens, NCI-H295R, at 3 μM, read-out: inhibition of DNA synthesis / growth", "value": 92, "unit": "%"}, {"measurement": "DNA synthesis, ratio experimental/control (E/C)", "setting": "[3]; compound at 3 μM", "value": "0.08 ± 0.21"}, {"measurement": "incubation time at which plateau of inhibition of DNA synthesis was reached", "setting": "MLS ovarian cancer cells", "value": 72, "unit": "h"}, {"measurement": "DNA synthesis, ratio experimental/control (E/C)", "setting": "MLS ovarian cancer cells; 9 (0.3 μM) + E2 30 nM", "value": "0.96 ± 0.24"}, {"measurement": "DNA synthesis, ratio experimental/control (E/C)", "setting": "MLS ovarian cancer cells; 9 (0.3 μM) + E2 0.3 μM", "value": "2.39 ± 0.07"}, {"measurement": "DNA synthesis (% of control)", "setting": "MLS ovarian cancer cells; 9 at 0.3 μM + 25 μM Z-VADFK", "value": 132, "unit": "%"}, {"measurement": "DNA synthesis, ratio experimental/control (E/C)", "setting": "MLS ovarian cancer cells; 9 at 0.3 μM + Z-VADFK (25 μM)", "value": "1.32 ± 0.26"}, {"measurement": "suppression of the proliferative effect of estradiol", "setting": "MLS ovarian cancer cells; 9 at 0.3 μM + estradiol 0.3 μM", "value": "could not suppress its proliferative effect"}, {"measurement": "DNA synthesis, ratio experimental/control (E/C)", "setting": "MLS ovarian cancer cells; 9 at 0.3 μM alone (Table 3)", "value": "0.61 ± 0.10"}, {"measurement": "DNA synthesis, ratio experimental/control (E/C)", "setting": "MLS ovarian cancer cells; 9 at 0.3 μM alone (Table 4)", "value": "0.74 ± 0.11"}, {"measurement": "DNA synthesis, ratio experimental/control (E/C)", "setting": "MLS ovarian cancer cells; 9 at 3 μM + Z-VADFK 25 μM", "value": "0.76 ± 0.16"}, {"measurement": "effect of apoptosis inhibitor on inhibition by 9", "setting": "MLS ovarian cancer cells; 9 at 3 μM + Z-VADFK 25 μM", "value": "capable of reversing the inhibitory effect of 9 on DNA synthesis"}, {"measurement": "DNA synthesis, ratio experimental/control (E/C)", "setting": "MLS ovarian cancer cells; 9 at 3 μM alone (Table 4)", "value": "0.44 ± 0.14"}, {"measurement": "effect on [3H]-thymidine incorporation into DNA", "setting": "MLS ovarian cancer cells; 15 to 6000 nmol/l", "value": "dose dependent decreases"}, {"measurement": "inhibition at 0.3 µM", "setting": "MLS ovarian cancer cells; Homo sapiens, 9 at 0.3 μM alone", "value": 26, "unit": "%"}, {"measurement": "inhibition at 3 µM", "setting": "MLS ovarian cancer cells; Homo sapiens, 9 at 3 μM alone", "value": 56, "unit": "%"}, {"measurement": "DNA synthesis, ratio experimental/control (E/C)", "setting": "MLS ovarian cancer cells; compound at 3 μM", "value": "0.03 ± 0.07"}, {"measurement": "DNA synthesis (% of control)", "setting": "MLS ovarian cancer cells; estradiol 30 nM + 0.3 μM compound 9", "value": 96, "unit": "%"}, {"measurement": "DNA synthesis, ratio experimental/control (E/C)", "setting": "[4]", "value": "0.73 ± 0.13"}, {"measurement": "weight reduction or death of treated mice", "setting": "MLS ovarian xenografts", "value": "No weight reduction or death"}, {"measurement": "weight reduction or death of treated mice", "setting": "MLS ovarian xenografts; listed as t-Boc daidzein derivative", "value": "did not cause death or weight loss"}, {"measurement": "GI50", "setting": "[5]", "value": 1820, "unit": "nM"}, {"measurement": "GI50", "setting": "[6]", "value": 1350, "unit": "nM"}]}
